Columns and labels:
Format in all cases: in vivo
[1] = system: barnyardgrass (Echinochloa crus-galli); assay: Test A preemergence soil spray, visual injury rating 0-100; settings: 10 days
How it was run: (§1)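 Compound in a non-phytotoxic, surfactant-containing solvent is applied either as a directed soil spray before seedlings emerge or onto emerged plants 2-10 cm tall; pots hold a loam-sand blend. Plants grow 10 days under greenhouse conditions and are rated by eye against untreated controls (0 no effect, 100 complete control).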

[2] = system: green foxtail (Setaria viridis); assay: as above; settings: 10 days
How it was run: as §1

[3] = system: palmer (palmer amaranth, palmer pigweed, Amaranthus palmeri); assay: as above; settings: 10 days
How it was run: as §1

[4] = system: ryegrass, Italian (italian ryegrass, Lolium multiflorum); assay: as above; settings: 10 days
How it was run: as §1

[5] = system: wheat (Triticum aestivum); assay: as above; settings: 10 days
How it was run: as §1

[6] = system: blackgrass (Alopecurus myosuroides); assay: as above; settings: 10 days
How it was run: as §1

kochia (Bassia scoparia) [7] = assay: as above; settings: 10 days
How it was run: as §1

corn (Zea mays) [8] = assay: as above; settings: 10 days
How it was run: as §1

[9] = system: ragweed (common ragweed, Ambrosia artemisiifolia); assay: as above; settings: 10 days
How it was run: as §1

soybean (Glycine max) [10] = assay: as above; settings: 10 days
How it was run: as §1

[11] = system: oat, wild (wild oat, Avena fatua); assay: as above; settings: 10 days
How it was run: as §1

[12] = system: barnyardgrass (Echinochloa crus-galli); assay: Test A postemergence application, visual injury rating 0-100
How it was run: as §1

[13] = system: green foxtail (Setaria viridis); assay: as above
How it was run: as §1

[14] = system: galium (catchweed bedstraw, Galium aparine); assay: as above
How it was run: as §1

[15] = system: palmer (palmer amaranth, palmer pigweed, Amaranthus palmeri); assay: as above
How it was run: as §1

[16] = system: horseweed (Erigeron canadensis); assay: as above
How it was run: as §1

[17] = system: ryegrass, Italian (italian ryegrass, Lolium multiflorum); assay: as above
How it was run: as §1

[18] = system: wheat (Triticum aestivum); assay: as above
How it was run: as §1

[19] = system: blackgrass (Alopecurus myosuroides); assay: as above
How it was run: as §1

kochia (Bassia scoparia) [20] = assay: as above
How it was run: as §1

corn (Zea mays) [21] = assay: as above
How it was run: as §1

[22] = system: ragweed (common ragweed, Ambrosia artemisiifolia); assay: as above
How it was run: as §1

soybean (Glycine max) [23] = assay: as above
How it was run: as §1

[24] = system: oat, wild (wild oat, Avena fatua); assay: as above
How it was run: as §1

[25] = system: sedge, umbrella (small-flower umbrella sedge, Cyperus difformis); assay: Test B flooded paddy test, visual plant response rating 0-100; settings: 250 g ai/ha, Flood, applied to paddy water, evaluated after 13 days
How it was run: (§2)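 In this flooded assay, 2-leaf seedlings received compound through the water layer, kept at 3 cm over the soil. Plants were held 13 days in a greenhouse and then visually compared with control pots.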

[26] = system: ducksalad (Heteranthera limosa); assay: as above; settings: 250 g ai/ha, Flood, applied to paddy water, evaluated after 13 days
How it was run: as §2

rice (Oryza sativa) = assay: as above; settings: 250 g ai/ha, Flood, applied to paddy water, evaluated after 13 days
How it was run: as §2

[27] = system: barnyardgrass (Echinochloa crusgalli); assay: as above; settings: 250 g ai/ha, Flood, applied to paddy water, evaluated after 13 days
How it was run: as §2

[28] = 62 g ai/ha, 0 = no effect, 100 = complete control
[29] = 62 g ai/ha, postemergence, 10 days, 0 = no effect, 100 = complete control
[30] = Postemergence, 16 g ai/ha, greenhouse 10 days, 0 no effect, 100 complete control

For CC1(C(=O)NC2C=CC(C(=O)O)C2)CN(c2cc(F)cc(F)c2)C(=O)O1 (stereo not shown) [Compound 131], the “Barnyardgrass plant response rating” value ([1]; 16 g ai/ha, 0 to 100 scale) was 0, the “Barnyardgrass plant response rating (0-100)” value [1, 28] was 80 and the “Foxtail, Green plant response rating” value ([2]; 16 g ai/ha, 0 to 100 scale) was 0. For the same compound, the “Foxtail, Green plant response rating (0-100)” value [2, 28] was 100, the “Pigweed, Palmer plant response rating” value ([3]; 16 g ai/ha, 0 to 100 scale) was 0 and the “Pigweed, Palmer plant response rating (0-100)” value [3, 28] was 80. The “Ryegrass, Italian plant response rating” value ([4]; 16 g ai/ha, 0 to 100 scale) was 0, the “Ryegrass, Italian plant response rating (0-100)” value [4, 28] was 90 and the “Wheat plant response rating” value ([5]; 16 g ai/ha, 0 to 100 scale) was 30. The “Wheat plant response rating (0-100)” value [5, 28] was 90, the “Blackgrass plant response rating” value ([6]; 16 g ai/ha, 0 to 100 scale) was 30 and the “Blackgrass plant response rating (0-100)” value [6, 28] was 90. The “Kochia plant response rating” value (kochia (Bassia scoparia) [7]; 16 g ai/ha, 0 to 100 scale) was 0, the “Kochia plant response rating (0-100)” value (kochia (Bassia scoparia) [7]; [28]) was 90 and the “Corn plant response rating” value (corn (Zea mays) [8]; 16 g ai/ha, 0 to 100 scale) was 10. The “Corn plant response rating (0-100)” value (corn (Zea mays) [8]; [28]) was 80, the “Ragweed plant response rating” value ([9]; 16 g ai/ha, 0 to 100 scale) was 0 and the “Ragweed plant response rating (0-100)” value [9, 28] was 10. For the same compound, the “Soybean plant response rating” value (soybean (Glycine max) [10]; 16 g ai/ha, 0 to 100 scale) was 0, the “Soybean plant response rating (0-100)” value (soybean (Glycine max) [10]; [28]) was 80 and the “Oat, Wild plant response rating” value ([11]; 16 g ai/ha, 0 to 100 scale) was 0. The “Oat, Wild plant response rating (0-100)” value [11, 28] was 60, the “Barnyardgrass plant response rating (0-100)” value [12, 29] was 100 and the “Barnyardgrass plant response rating (0 to 100 scale)” value [12, 30] was 90. For the same compound, the “Foxtail, Green plant response rating (0-100)” value [13, 29] was 90, the “Foxtail, Green plant response rating (0 to 100 scale)” value [13, 30] was 30 and the “Galium plant response rating (0-100)” value [14, 29] was 90. For the same compound, the “Galium plant response rating (0 to 100 scale)” value [14, 30] was 70, the “Pigweed, Palmer plant response rating (0-100)” value [15, 29] was 80 and the “Pigweed, Palmer plant response rating (0 to 100 scale)” value [15, 30] was 20. For the same compound, the “Horseweed plant response rating (0-100)” value [16, 29] was 80, the “Horseweed plant response rating (0 to 100 scale)” value [16, 30] was 40 and the “Ryegrass, Italian plant response rating (0-100)” value [17, 29] was 90. For the same compound, the “Ryegrass, Italian plant response rating (0 to 100 scale)” value [17, 30] was 10, the “Wheat plant response rating (0-100)” value [18, 29] was 90 and the “Wheat plant response rating (0 to 100 scale)” value [18, 30] was 90. The “Blackgrass plant response rating (0-100)” value [19, 29] was 90, the “Blackgrass plant response rating (0 to 100 scale)” value [19, 30] was 90 and the “Kochia plant response rating (0-100)” value (kochia (Bassia scoparia) [20]; [29]) was 50. The “Kochia plant response rating (0 to 100 scale)” value (kochia (Bassia scoparia) [20]; [30]) was 20, the “Corn plant response rating (0-100)” value (corn (Zea mays) [21]; [29]) was 100 and the “Corn plant response rating (0 to 100 scale)” value (corn (Zea mays) [21]; [30]) was 50. The “Ragweed plant response rating (0-100)” value [22, 29] was 70, the “Ragweed plant response rating (0 to 100 scale)” value [22, 30] was 0 and the “Soybean plant response rating (0-100)” value (soybean (Glycine max) [23]; [29]) was 80. For the same compound, the “Soybean plant response rating (0 to 100 scale)” value (soybean (Glycine max) [23]; [30]) was 80, the “Oat, Wild plant response rating (0-100)” value [24, 29] was 90 and the “Oat, Wild plant response rating (0 to 100 scale)” value [24, 30] was 90. For the same compound, the “Plant response rating, Sedge, Umbrella (0 to 100 scale, 0 is no effect and 100 is complete control)” value [25] was 95, the “Plant response rating, Ducksalad (0 to 100 scale, 0 is no effect and 100 is complete control)” value [26] was 80 and the “Plant response rating, Rice (0 to 100 scale, 0 is no effect and 100 is complete control)” value (rice (Oryza sativa)) was 70. The “Plant response rating, Barnyardgrass (0 to 100 scale, 0 is no effect and 100 is complete control)” value [27] was 95.

Source: patent US20260285850A1, “SUBSTITUTED OXAZOLIDINONES AND IMIDAZOLINONES AS HERBICIDES” (FMC CORPORATION, priority 2023, published 2026)
